Assays:
human cyclin D1-CDK4 = human cyclin D1-CDK4 (Homo sapiens, UniProt P11802); assay: FlashPlate kinase assay, cyclin D1-CDK4; type: biochemical; details: Rb protein substrate, 1 μM ATP
Protocol: (§1) To determine inhibition of Cdk4, Cdk2 and Cdk1 activity, kinase assays were conducted using FlashPlate™ assays (NEN™-Life Science Products). FlashPlate assays were performed using recombinant human cyclin B-CDK1, human cyclin E-CDK2 or human cyclin D1-CDK4 complexes. GST-cyclinE (GST-cycE), CDK2, GST-cyclinB (GST-cycB), CDK1, GST-CDK4 and cyclin D1 (cycD1) cDNA clones in baculovirus vectors were provided by Dr. W. Harper at the Baylor College of Medicine, Houston, Tex.
(§2) The expression of the 62Kd protein was under the control of an IPTG inducible promoter in an M15 E. coli strain. Cells were lysed by sonication and purification was carried out by binding lysates at pH 8.0 to a Ni-chelated agarose column pretreated with 1 mM imidazole. The resin was then washed several times with incrementally decreasing pH buffers to pH 6.0, and eluted with 500 mM imidazole. Eluted protein was dialysed against 20 mM HEPES pH 7.5, 30% glycerol, 200 mM NaCl, and 1 mM DTT. Purified Rb fusion protein stocks were quantitated for protein concentration, aliquoted, and stored at −70° C.
(§3) For all three kinase assays reported herein, 96-well FlashPlates were coated with Rb protein at 10 μg/ml, using 100 μl per well. Plates were incubated at 4° C. overnight or at room temperature for 3 hours on a shaker. To control for nonspecific phosphorylation, one row of wells was coated with 100 μl/well coating buffer (20 mM HEPES, 0.2 M NaCl). Plates were then washed twice with wash buffer (0.01% Tween 20 in phosphate-buffered saline). Compounds to be tested (“test compounds”) were added to the wells at 5×final concentration. Reactions were initiated by immediate addition of 40 μl reaction mix (25 mM HEPES, 20 mM MgCl2, 0.002% Tween 20, 2 mM DTT, 1 μM ATP, 4 nM ^33P-ATP) and a sufficient amount of enzyme to give counts that were at least 10-fold above background. Plates were incubated at room temperature on a shaker for 30 minutes. Plates were washed four times with the wash buffer, sealed, and counted on the TopCount scintillation counter (Packard Instrument Co., Downers Grove, Ill.]. The percent inhibition of Rb phosphorylation, which is a measure of the inhibition of CDK activity, was determined according to the following formula: [formula]
(§4) where “test compound” refers to the average counts per minute of the test duplicates, “nonspecific” refers to the average counts per minute when no CyclinD/Cdk4, etc., was added, and “total” refers to the average counts per minute when no compound was added.

human cyclin E-CDK2 = human cyclin E-CDK2 (Homo sapiens, UniProt P24941); assay: FlashPlate kinase assay, cyclin E-CDK2; type: biochemical; details: Rb protein substrate, 1 μM ATP
Protocol: as §1, §2, §3, §4

human cyclin B-CDK1 = human cyclin B-CDK1 (Homo sapiens, UniProt P06493); assay: FlashPlate kinase assay, cyclin B-CDK1; type: biochemical; details: Rb protein substrate, 1 μM ATP
Sequence of human cyclin B-CDK1 (P06493 whole entry): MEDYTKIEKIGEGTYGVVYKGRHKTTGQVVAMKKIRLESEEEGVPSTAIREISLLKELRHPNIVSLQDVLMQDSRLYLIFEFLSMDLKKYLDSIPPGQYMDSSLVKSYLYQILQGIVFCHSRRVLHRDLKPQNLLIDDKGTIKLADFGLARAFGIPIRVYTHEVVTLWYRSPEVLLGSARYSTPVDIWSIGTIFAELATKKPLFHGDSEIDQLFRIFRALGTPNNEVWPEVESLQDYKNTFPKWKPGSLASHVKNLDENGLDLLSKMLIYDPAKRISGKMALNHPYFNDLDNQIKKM
Sequence of human cyclin B-CDK1 (P14635 whole entry partner): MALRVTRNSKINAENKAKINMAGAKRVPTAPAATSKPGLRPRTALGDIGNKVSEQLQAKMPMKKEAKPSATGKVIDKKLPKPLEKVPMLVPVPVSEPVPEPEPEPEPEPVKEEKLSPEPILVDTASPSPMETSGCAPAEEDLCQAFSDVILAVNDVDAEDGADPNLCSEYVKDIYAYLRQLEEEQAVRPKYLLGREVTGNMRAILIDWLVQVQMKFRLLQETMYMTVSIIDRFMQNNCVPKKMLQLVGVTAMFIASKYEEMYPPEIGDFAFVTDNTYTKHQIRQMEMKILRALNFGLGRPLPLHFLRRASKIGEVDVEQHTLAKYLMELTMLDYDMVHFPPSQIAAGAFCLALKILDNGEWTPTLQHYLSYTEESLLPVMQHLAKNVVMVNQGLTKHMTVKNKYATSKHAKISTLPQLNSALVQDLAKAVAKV
Protocol: as §1, §2, §3, §4

HCT116 = assay: Tetrazolium dye (MTT) proliferation assay; type: cell-based; details: Homo sapiens, HCT-116; HCT116 colorectal carcinoma cell line
Protocol: The cell line used was HCT116, a colorectal carcinoma cell line obtained from the American Type Cell Culture Collection (ATCC;
Rockville, Md.). The cells were grown in McCoy's 5A medium supplemented with 10% FCS and L-glutamine.
Cells were plated at the appropriate seeding density to give logarithmic growth over the course of the assay in a 96-well tissue culture plate. Plates were incubated overnight at 37° C. in a humidified incubator with 5% CO2. The next day, test compounds were serially diluted to four times the final concentration in the appropriate medium containing 1.2% DMSO. One-fourth final volume of each dilution was added in duplicate to the plates containing cells. The same volume of 1.2% DMSO in medium was added to a row of “control wells” such that the final concentration of DMSO in each well was 0.3%. Wells to which no cells were added served as the “blank.” Wells to which no inhibitor was added served as “no inhibitor control.” The plates were) returned to the incubator, and at set time points (determined by their growth curves) plates were analyzed as described below.
3-(4,5-dimethylthiazole-2-yl)-2,5-diphenyl-2H-tetrazolium bromide (thiazolyl blue; MTT; Sigma) was added to each well to yield a final concentration of 1 mg/ml. Plates were returned to the incubator for 2.5-3 hours at 37° C. The MTT-containing medium was removed and the resulting formazan metabolite was solubilized in 100% ethanol with shaking for 15 minutes at room temperature. Absorbance readings were taken in a microtiter plate reader (Dynatech and Molecular Devices plate readers were used interchangeably) at a wavelength of 570 nm with a 650 nm reference. Percent inhibition (% INH) is calculated by subtracting the absorbance of the blank well from all wells, then subtracting the ratio of the average absorbance of each test duplicate (SAVE) by the average of the controls (CAVE) from 1.00. The final number is then multiplied by 100 (% INH=(1.00−SAVE/CAVE)×100).

Cdk1 = Cdk1 (Homo sapiens, UniProt P06493); details: cited from earlier work
Sequence of Cdk1 (P06493 whole entry, species assumed): as the sequence (P06493 whole entry) above
Sequence of Cdk1 (P14635 whole entry partner, species assumed): as the sequence (P14635 whole entry partner) above

Cdk2 = Cdk2 (Homo sapiens, UniProt P24941); details: cited from earlier work
Cdk4 = Cdk4 (Homo sapiens, UniProt P11802); details: cited from earlier work
Sequence of Cdk4 (P11802 whole entry, species assumed): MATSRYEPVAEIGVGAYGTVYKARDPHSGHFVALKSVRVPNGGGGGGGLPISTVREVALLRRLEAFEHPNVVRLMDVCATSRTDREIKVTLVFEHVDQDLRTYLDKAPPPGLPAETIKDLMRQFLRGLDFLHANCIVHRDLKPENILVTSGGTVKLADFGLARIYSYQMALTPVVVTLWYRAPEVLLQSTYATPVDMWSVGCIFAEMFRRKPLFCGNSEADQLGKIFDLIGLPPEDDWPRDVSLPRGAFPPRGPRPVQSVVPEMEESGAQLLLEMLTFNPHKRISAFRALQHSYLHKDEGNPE
Sequence of Cdk4 (P24385 whole entry partner, species assumed): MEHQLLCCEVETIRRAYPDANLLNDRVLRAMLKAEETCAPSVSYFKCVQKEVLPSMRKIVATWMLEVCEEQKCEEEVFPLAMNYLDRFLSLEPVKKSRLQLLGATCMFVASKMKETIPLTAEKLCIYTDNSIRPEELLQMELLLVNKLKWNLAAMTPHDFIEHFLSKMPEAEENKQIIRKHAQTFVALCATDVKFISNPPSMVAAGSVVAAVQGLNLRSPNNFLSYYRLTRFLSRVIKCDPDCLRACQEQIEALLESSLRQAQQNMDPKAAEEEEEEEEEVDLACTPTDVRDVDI

cells = details: cited from earlier work
PKC = details: cited from earlier work

Sequence of human cyclin D1-CDK4 (P11802 whole entry): as the sequence (P11802 whole entry, species assumed) above
Sequence of human cyclin D1-CDK4 (P24385 whole entry partner): as the sequence (P24385 whole entry partner, species assumed) above

SMILES	IC50 (human cyclin D1-CDK4) [µM]	IC50 (human cyclin E-CDK2) [µM]	IC50 (human cyclin B-CDK1) [µM]	IC50 (HCT116) [µM]	inhibition of Cdk1 (Cdk1)	inhibition of Cdk2 (Cdk2)	inhibition of Cdk4 (Cdk4)	cell cycle block (cells)	inhibition of PKC (PKC)
CN1CCN(c2ccc(Nc3nc(N)c(C(=O)c4ccc(N5CCCC5)c(N)c4)s3)cc2)CC1 [Example 65]	0.026	7.4	2.2	1.2					
CN1CC[C@H](c2c(O)cc(O)c3c(=O)cc(-c4ccccc4Cl)oc23)[C@H](O)C1 [Flavopiridol]					inhibits	inhibits	inhibits	blocks cells in both G1 and G2 phases	weaker inhibitor

The next lines start with results.

IC50 (human cyclin D1-CDK4) [µM]	IC50 (human cyclin E-CDK2) [µM]	IC50 (human cyclin B-CDK1) [µM]	IC50 (HCT116) [µM]	SMILES	inhibition of Cdk1 (Cdk1)	inhibition of Cdk2 (Cdk2)	inhibition of Cdk4 (Cdk4)	cell cycle block (cells)	inhibition of PKC (PKC)
0.025	5.3	5.2	1.3	CC(C)C[C@H](CO)Nc1ccc(C(=O)c2sc(Nc3ccc(N4CCN(C)CC4)cc3)nc2N)cc1[N+](=O)[O-] [Example 63, (R)-[4-Amino-2-[[4-(4-methyl-1-piperazinyl)phenyl]amino]-5-thiazolyl][3-nitro-4-[[1-(hydroxymethyl)-3-methylbutyl]amino]phenyl]methanone]					
0.009	4.8	3.5	8	CN1CCN(c2ccc(Nc3nc(N)c(C(=O)c4ccc(N5CCC(O)CC5)c([N+](=O)[O-])c4)s3)cc2)CC1 [Example 64, [4-Amino-2-[[4-(4-methyl-1-piperazinyl)phenyl]amino]-5-thiazolyl][3-nitro-4-(4-hydroxy-1-piperidinyl)phenyl]methanone]					
0.02	3.8	9.6	10.8	CC(C)C[C@H](CO)Nc1ccc(C(=O)c2sc(Nc3ccc(N4CCN(C)CC4)cc3)nc2N)cc1N [Example 66, (R)-[3-Amino-4-[[1-(hydroxymethyl)-3-methylbutyl]amino]phenyl][4-amino-2-[[4-(4-methyl-1-piperazinyl)phenyl]amino]-5-thiazolyl]methanone]					

Source: patent publication US6756374B2, “Diaminothiazoles having antiproliferative activity” (Hoffmann-La Roche Inc., priority 2001, dated 2004)
